In PubChem BioAssay AID1963967 (Molecular Pharmacology Branch, DTP, NCI, 2024):

System: 855422-203-R-J1-PDC spheroids with HUVEC/MSC, viability
Experiment: Anticancer human tumor 855422-203-R-J1-PDC patient-derived bladder carcinoma cell line growth inhibition [PI3K]
Conditions: for viability, T/C: stronger effect = lower value
In short: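 Spheroid viability read-out. Co-cultures contained the tumor line plus HUVEC and human MSCs. Each agent was paired with a PI3K inhibitor (inavolisib, alpelisib, duvelisib, copanlisib) across half-log dilutions starting at clinical Cmax, or at 10 microM when Cmax was unknown.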

[1] = curve of first compound, second compound 0.0316 µM
[2] = curve of first compound, second compound 0.1 µM
[3] = curve of first compound, second compound 0.316 µM
[4] = curve of first compound, second compound 1 µM
[5] = second compound 0.0316 µM, first compound 0.0316 µM
[6] = second compound 0.0316 µM, first compound 0.1 µM
[7] = second compound 0.0316 µM, first compound 0.316 µM
[8] = second compound 0.0316 µM, first compound 1 µM
[9] = second compound 0.0316 µM, first compound 3.16 µM
[10] = second compound 0.0316 µM, first compound 10 µM
[11] = second compound 0.1 µM, first compound 0.0316 µM
[12] = second compound 0.1 µM, first compound 0.1 µM
[13] = second compound 0.1 µM, first compound 0.316 µM
[14] = second compound 0.1 µM, first compound 1 µM
[15] = second compound 0.1 µM, first compound 3.16 µM
[16] = second compound 0.1 µM, first compound 10 µM
[17] = second compound 0.316 µM, first compound 0.0316 µM
[18] = second compound 0.316 µM, first compound 0.1 µM
[19] = second compound 0.316 µM, first compound 0.316 µM
[20] = second compound 0.316 µM, first compound 1 µM
[21] = second compound 0.316 µM, first compound 3.16 µM
[22] = second compound 0.316 µM, first compound 10 µM
[23] = second compound 1 µM, first compound 0.0316 µM
[24] = second compound 1 µM, first compound 0.1 µM
[25] = second compound 1 µM, first compound 0.316 µM
[26] = second compound 1 µM, first compound 1 µM
[27] = second compound 1 µM, first compound 3.16 µM
[28] = second compound 1 µM, first compound 10 µM
[29] = curve of first compound, second compound 3.16 µM
[30] = curve of first compound, second compound 10 µM
[31] = second compound 3.16 µM, first compound 0.0316 µM
[32] = second compound 3.16 µM, first compound 0.1 µM
[33] = second compound 10 µM, first compound 0.0316 µM
[34] = second compound 10 µM, first compound 0.1 µM
[35] = second compound 3.16 µM, first compound 0.316 µM
[36] = second compound 3.16 µM, first compound 1 µM
[37] = second compound 3.16 µM, first compound 3.16 µM
[38] = second compound 3.16 µM, first compound 10 µM
[39] = second compound 10 µM, first compound 0.316 µM
[40] = second compound 10 µM, first compound 1 µM
[41] = second compound 10 µM, first compound 3.16 µM
[42] = second compound 10 µM, first compound 10 µM
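Also: agents incubated with spheroids for one week before read-out.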
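For viability, T/C in this document: 100% = DMSO vehicle-treated control wells.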

Structure (SMILES): Cn1ncc(Cl)c1-c1cc(C(=O)NC(CN)Cc2cccc(F)c2)sc1Cl (stereo not given)
- viability, T/C (compound 0.0316 µM): 93.2% [middle of 4 runs]
- viability, T/C (compound 0.1 µM): 75.2% [middle of 4 runs]
- viability, T/C (compound 0.316 µM): 69.4% [middle of 4 runs]
- viability, T/C (compound 1 µM): 49.7% [middle of 4 runs]
- viability, T/C (compound 3.16 µM): 28.2% [middle of 4 runs]
- viability, T/C (compound 10 µM): 8.18% [middle of 4 runs]
- IC50 (curve of compound): 936 nM [middle of 4 runs]

Structure (SMILES): CC1(C)CCC(Nc2ncc(C(F)(F)F)c(-c3c[nH]c4c(P(C)(C)=O)c(C#N)ccc34)n2)CN1 (stereo not given) + COc1c(OCCCN2CCOCC2)ccc2c3n(c(=NC(=O)c4cnc(N)nc4)nc12)CCN3
- IC50 (curve of first compound, second compound 0.00316 µM): < 31.6 nM
- IC50 (curve of first compound, second compound 0.01 µM): < 31.6 nM
- IC50 [1]: < 31.6 nM
- IC50 [2]: < 31.6 nM
- IC50 [3]: < 31.6 nM
- IC50 [4]: < 31.6 nM
- viability, T/C (second compound 0.00316 µM, first compound 0.0316 µM): 24.9%
- viability, T/C (second compound 0.00316 µM, first compound 0.1 µM): 20.8%
- viability, T/C (second compound 0.00316 µM, first compound 0.316 µM): 22.4%
- viability, T/C (second compound 0.00316 µM, first compound 1 µM): 23.3%
- viability, T/C (second compound 0.00316 µM, first compound 3.16 µM): 24.3%
- viability, T/C (second compound 0.00316 µM, first compound 10 µM): 2.48%
- viability, T/C (second compound 0.01 µM, first compound 0.0316 µM): 21.2%
- viability, T/C (second compound 0.01 µM, first compound 0.1 µM): 18.6%
- viability, T/C (second compound 0.01 µM, first compound 0.316 µM): 21.3%
- viability, T/C (second compound 0.01 µM, first compound 1 µM): 19.8%
- viability, T/C (second compound 0.01 µM, first compound 3.16 µM): 20.4%
- viability, T/C (second compound 0.01 µM, first compound 10 µM): 3.49%
- viability, T/C [5]: 16.7%
- viability, T/C [6]: 17.2%
- viability, T/C [7]: 13.9%
- viability, T/C [8]: 16.9%
- viability, T/C [9]: 16.6%
- viability, T/C [10]: 1.53%
- viability, T/C [11]: 12.7%
- viability, T/C [12]: 10.7%
- viability, T/C [13]: 12.4%
- viability, T/C [14]: 10.1%
- viability, T/C [15]: 8.84%
- viability, T/C [16]: 1.32%
- viability, T/C [17]: 5.48%
- viability, T/C [18]: 4.79%
- viability, T/C [19]: 5.47%
- viability, T/C [20]: 6.03%
- viability, T/C [21]: 3.06%
- viability, T/C [22]: 1.28%
- viability, T/C [23]: 1.83%
- viability, T/C [24]: 2.45%
- viability, T/C [25]: 2.02%
- viability, T/C [26]: 2.08%
- viability, T/C [27]: 1.22%
- viability, T/C [28]: 1.25%

Structure (SMILES): CC(=O)c1c(C)c2cnc(Nc3ccc(N4CCNCC4)cn3)nc2n(C2CCCC2)c1=O + Cc1nc(NC(=O)N2CCCC2C(N)=O)sc1-c1ccnc(C(C)(C)C(F)(F)F)c1
- IC50 [1]: > 100 nM
- IC50 [2]: > 100 nM
- IC50 [3]: > 100 nM
- IC50 [4]: 51.7 nM
- IC50 [29]: < 0.316 nM
- IC50 [30]: < 0.316 nM
- viability, T/C (second compound 0.0316 µM, first compound 0.000316 µM): 103%
- viability, T/C (second compound 0.0316 µM, first compound 0.001 µM): 94.1%
- viability, T/C (second compound 0.0316 µM, first compound 0.00316 µM): 111%
- viability, T/C (second compound 0.0316 µM, first compound 0.01 µM): 112%
- viability, T/C [5]: 102%
- viability, T/C [6]: 85.3%
- viability, T/C (second compound 0.1 µM, first compound 0.000316 µM): 106%
- viability, T/C (second compound 0.1 µM, first compound 0.001 µM): 97.8%
- viability, T/C (second compound 0.1 µM, first compound 0.00316 µM): 109%
- viability, T/C (second compound 0.1 µM, first compound 0.01 µM): 98.3%
- viability, T/C [11]: 96.3%
- viability, T/C [12]: 76.7%
- viability, T/C (second compound 0.316 µM, first compound 0.000316 µM): 91.7%
- viability, T/C (second compound 0.316 µM, first compound 0.001 µM): 92.5%
- viability, T/C (second compound 0.316 µM, first compound 0.00316 µM): 97.3%
- viability, T/C (second compound 0.316 µM, first compound 0.01 µM): 90.7%
- viability, T/C [17]: 90.9%
- viability, T/C [18]: 58%
- viability, T/C (second compound 1 µM, first compound 0.000316 µM): 69.4%
- viability, T/C (second compound 1 µM, first compound 0.001 µM): 78.2%
- viability, T/C (second compound 1 µM, first compound 0.00316 µM): 72.8%
- viability, T/C (second compound 1 µM, first compound 0.01 µM): 75.5%
- viability, T/C [23]: 60.5%
- viability, T/C [24]: 33%
- viability, T/C (second compound 3.16 µM, first compound 0.000316 µM): 44.1%
- viability, T/C (second compound 3.16 µM, first compound 0.001 µM): 46.9%
- viability, T/C (second compound 3.16 µM, first compound 0.00316 µM): 42.7%
- viability, T/C (second compound 3.16 µM, first compound 0.01 µM): 41.3%
- viability, T/C [31]: 34.5%
- viability, T/C [32]: 18.2%
- viability, T/C (second compound 10 µM, first compound 0.000316 µM): 25.3%
- viability, T/C (second compound 10 µM, first compound 0.001 µM): 24%
- viability, T/C (second compound 10 µM, first compound 0.00316 µM): 24.1%
- viability, T/C (second compound 10 µM, first compound 0.01 µM): 23%
- viability, T/C [33]: 19.3%
- viability, T/C [34]: 10.7%

Structure (SMILES): C#Cc1c(F)ccc2cc(O)cc(-c3ncc4c(N5CC6CCC(C5)N6)nc(OCC56CCCN5CC(F)C6)nc4c3F)c12 (stereo not given) + CC(Nc1ncnc2nc[nH]c12)c1cc2cccc(Cl)c2c(=O)n1-c1ccccc1
- IC50 [1]: > 10000 nM
- IC50 [2]: > 10000 nM
- IC50 [3]: > 10000 nM
- IC50 [4]: > 10000 nM
- IC50 [29]: > 10000 nM
- IC50 [30]: > 10000 nM
- viability, T/C [5]: 105%
- viability, T/C [6]: 101%
- viability, T/C [7]: 116%
- viability, T/C [8]: 98.3%
- viability, T/C [9]: 112%
- viability, T/C [10]: 119%
- viability, T/C [11]: 107%
- viability, T/C [12]: 102%
- viability, T/C [13]: 107%
- viability, T/C [14]: 101%
- viability, T/C [15]: 110%
- viability, T/C [16]: 112%
- viability, T/C [17]: 98.1%
- viability, T/C [18]: 108%
- viability, T/C [19]: 96.6%
- viability, T/C [20]: 102%
- viability, T/C [21]: 106%
- viability, T/C [22]: 121%
- viability, T/C [23]: 102%
- viability, T/C [24]: 102%
- viability, T/C [25]: 103%
- viability, T/C [26]: 109%
- viability, T/C [27]: 104%
- viability, T/C [28]: 115%
- viability, T/C [31]: 107%
- viability, T/C [32]: 99.1%
- viability, T/C [35]: 112%
- viability, T/C [36]: 93.7%
- viability, T/C [37]: 98.1%
- viability, T/C [38]: 126%
- viability, T/C [33]: 87.2%
- viability, T/C [34]: 82.8%
- viability, T/C [39]: 80%
- viability, T/C [40]: 88.5%
- viability, T/C [41]: 94%
- viability, T/C [42]: 88.9%

Structure (SMILES): CC1(C)CCC(Nc2ncc(C(F)(F)F)c(-c3c[nH]c4c(P(C)(C)=O)c(C#N)ccc34)n2)CN1 (stereo not given) + Cc1nc(NC(=O)N2CCCC2C(N)=O)sc1-c1ccnc(C(C)(C)C(F)(F)F)c1
- IC50 [1]: < 31.6 nM
- IC50 [2]: < 31.6 nM
- IC50 [3]: < 31.6 nM
- IC50 [4]: < 31.6 nM
- IC50 [29]: < 31.6 nM
- IC50 [30]: < 31.6 nM
- viability, T/C [5]: 27%
- viability, T/C [6]: 25.1%
- viability, T/C [7]: 25.5%
- viability, T/C [8]: 29.4%
- viability, T/C [9]: 26.9%
- viability, T/C [10]: 7.04%
- viability, T/C [11]: 26%
- viability, T/C [12]: 23.9%
- viability, T/C [13]: 25%
- viability, T/C [14]: 26.7%
- viability, T/C [15]: 28%
- viability, T/C [16]: 7.41%
- viability, T/C [17]: 22.5%
- viability, T/C [18]: 23%
- viability, T/C [19]: 25%
- viability, T/C [20]: 22%
- viability, T/C [21]: 18.5%
- viability, T/C [22]: 5.22%
- viability, T/C [23]: 20.2%
- viability, T/C [24]: 20.2%
- viability, T/C [25]: 18.7%
- viability, T/C [26]: 19.6%
- viability, T/C [27]: 17.5%
- viability, T/C [28]: 2.99%
- viability, T/C [31]: 16.3%
- viability, T/C [32]: 15.4%
- viability, T/C [35]: 13.3%
- viability, T/C [36]: 12.9%
- viability, T/C [37]: 10.8%
- viability, T/C [38]: 0.7%
- viability, T/C [33]: 11.8%
- viability, T/C [34]: 10.2%
- viability, T/C [39]: 8.26%
- viability, T/C [40]: 8.63%
- viability, T/C [41]: 6.11%
- viability, T/C [42]: 0.26%
